Assays:
[1] = Etching (dissolution) of deposited layers by IPA/water mixed solvent; format: physicochemical; details: IPA 60 wt %; for etching rate: deposited film
Text: In the present invention, a larger etching rate means a higher dissolution rate. In addition, a larger etching rate means a higher solubility of a layer having a material of interest in the solvent (polar solvent).
FIG. 3 is a graph illustrating thickness changes in the compound 1 and the compound A2 over an etching time. Here, FIG. 3 illustrates the results of the etching of the respective layers when a mixed solvent obtained by mixing isopropyl alcohol (IPA) and water so that IPA may account for 60 wt % (hereinafter, sometimes referred to as “IPA/water mixed solvent”) is used as a solvent formed of a polar solvent.
When the etching rates of the respective layers are calculated with their etching conditions made identical to each other, the etching rate of the layer A is 0.008 nm/sec but the etching rate of the layer B is 0.87 nm/sec, that is, a ratio of the latter to the former is about 100.
Here, a ratio (n) between the etching rates of the organic compound layer (corresponding to the layer A) and the release layer (corresponding to the layer B) by the polar solvent can be represented like the following equation.
Performed next was a second processing step of removing a part of the release layer 30 with a mixed solvent obtained by mixing water and IPA so that an IPA concentration was 60 wt % to reduce the thickness of the release layer 30. It should be noted that as the etching rate of the compound (phenanthroline derivative represented by the formula (2)) constituting the release layer 30 in this example was 0.9 nm/sec, part of the release layer 30 was removed through immersion in the mixed solvent for 530 seconds so that the thinning was performed (FIG. 2M). As a result of the second processing step, the thickness of the release layer 30 became 20 nm. In addition, each release layer subjected to the thinning in the second processing step functions as the charge transport layer (electron transport layer) 23a, 23b, or 23c. Next, vacuum heating was performed at 80° C. so that the solvent remaining on the charge transport layer was removed.

[2] = Solubility in IPA/water mixed solvent (FIG. 4); format: physicochemical; details: IPA concentration 80 wt %; per 1 g solvent
Text: The solubility of a compound as a constituent material for each layer in the IPA/water mixed solvent varies depending on the weight ratio of IPA in the mixed solvent. FIG. 4 is a graph illustrating the solubilities of the compound 1 (condensed polycyclic hydrocarbon compound) and the compound A2 (heterocyclic compound) in the IPA/water mixed solvent (polar solvent). Here, in the graph of FIG. 4, the axis of abscissa indicates the weight percent concentration of IPA in the IPA/water mixed solvent, and the axis of ordinate indicates the amount of the condensed polycyclic hydrocarbon compound or heterocyclic compound to dissolve in 1 g of the solvent.

| SMILES | etching rate [1] [nm/s] | thickness change over etching time (FIG. 3) [1] | ratio (n) of etching rate of release layer (layer B, compound A2) to organic compound layer (layer A, compound 1) ([1]; identical etching conditions) | etching rate ([1]; listed as formula (2)) [nm/s] | amount dissolving in 1 g of the IPA/water mixed solvent [2] [µg] |
| --- | --- | --- | --- | --- | --- |
| O=C1c2ccccc2OC2C=CC(c3cccc(-c4cccc(-c5cc(-c6cccc(-c7ccccc7)c6)cc(-c6cccc(C7C=CC=CC7)c6)c5)c4)c3)=CC12 (stereo not shown) [compound C1] | 1.5 | – | – | – | – |
| CC1(C)c2ccccc2-c2ccc(-c3ccc4ccc5ccc(-c6ccc7c(c6)C(C)(C)c6ccccc6-7)nc5c4n3)cc21 [compound A2] | 0.87 | reduces over time | about 100 | 0.9 | 73 |
| CC1(C)c2cc(-c3ccc4ccc5cccc6ccc3c4c56)ccc2-c2ccc(-c3ccc4ccc5cccc6ccc3c4c56)cc21 [compound 1] | 0.008 | nearly no thickness reduction | – | – | 5 |
| c1ccc(-c2cc(-c3ccccc3)cc(-c3cccc(-c4cccc(-c5ccc6c7ccccc7c7ccccc7c6c5)c4)c3)c2)cc1 [compound B1] | 1.3 | – | – | – | – |
